Source: paper PMC4125160, “Neurotoxicity and Mode of Action of N, N-Diethyl-Meta-Toluamide (DEET)” (PLoS ONE, 2014)
Like-named read-outs stand apart in the source and are kept apart here.

How the values were obtained:
[1] = target: T1, Aedes aegypti AChE (AeAChE) (Aedes aegypti, UniProt Q6A2E2); test: AChE inhibition, Ellman assay; type: biochemical
T1 construct: Homogenate enzymes were prepared from groups of ten non-blood fed adult female mosquitoes; from tissue; host or cells: whole adult female mosquitoes, supernatant of homogenate
Description: (§1) In vitro biochemical assays utilized five acetylcholinesterase (AChE) enzymes. Recombinant human AChE (hAChE) was purchased from a commercial source (lyophilized powder, Sigma C1682, St. Louis, MO, USA). Homogenates to prepare Anopheles gambiae AChE (AgAChE) were obtained from the wild type G3 strain and the resistant AKRON strain (BEI Resources; http://www.beiresources.org/). AKRON mosquitoes (from Benin and donated by M. Akogbeto) have both knockdown resistance (kdr) to pyrethroids (L1014F sodium channel mutation) and the G119S AChE mutation (ace-1R), which confers resistance to carbamates, [15]. Both strains were cultured in the Emerging Pathogens Institute, University of Florida, Gainesville, FL, USA from eggs provided by the Center for Disease Control, Atlanta, GA, USA. Homogenates were also used to prepare Aedes aegypti AChE (AeAChE) from mosquitoes provided by the CMAVE, USDA-ARS, Gainesville, FL, USA; Musca domestica AChE (MdAChE) from flies cultured in the Department of Entomology and Nematology, Medical Entomology Laboratory, University of Florida, Gainesville, FL, USA); and Drosophila melanogaster AChE (DmAChE) from flies (Oregon-R strain) cultured in the Emerging Pathogens Institute, University of Florida, Gainesville, FL, USA. Homogenate enzymes were prepared from groups of ten non-blood fed adult female mosquitoes, five whole bodied Drosophila, or three Musca heads homogenized in 1 mL of ice-cold sodium phosphate buffer (0.1 M sodium phosphate, pH 7.8) with an electric motor driven glass tissue homogenizer. The homogenate was centrifuged at 5000×g using a Sorvall Fresco refrigerated centrifuge at 4 °C for 5 minutes. The supernatant was used as the enzyme source, and all enzyme preparations contained 0.3% (v/v) triton X-100 and 1 mg/ml BSA. Prior to use, the recombinant human enzyme was diluted 500-fold into sodium phosphate buffer containing triton X-100 and 1 mg/ml BSA.
(§2) Inhibition of AChE was determined using the Ellman assay and was based on the method outlined in Carlier et al.. Briefly, enzyme solution (10 µL) was added to each well of a 96-well micro assay plate, along with 20 µL of inhibitor in DMSO/saline suspension, and 150 µL of sodium phosphate buffer. Final concentration of DMSO was 0.1% in all incubations. The plate was incubated at 25 °C for ten minutes. Ellman assay reagents, acetylthiocholine iodide (0.4 mM, final concentration) and 5,5′-dithiobis-(2-nitro)benzoic acid (0.3 mM, final concentration), were prepared fresh and 20 µL was added to the enzyme to initiate the reaction.

[2] = target: T2, Anopheles gambiae AChE (AgAChE), wild type G3 strain (Anopheles gambiae, UniProt Q869C3); test: AChE inhibition, Ellman assay; type: biochemical
T2 construct: Homogenate enzymes were prepared from groups of ten non-blood fed adult female mosquitoes; from tissue; host or cells: whole adult female mosquitoes, G3 strain, supernatant of homogenate
Description: as §1, §2

[3] = target: T3, Drosophila melanogaster AChE (DmAChE) (Drosophila melanogaster, UniProt P07140); test: AChE inhibition, Ellman assay; type: biochemical; conditions: mean, n = 3; read-out: IC50 (95% CI)
T3 construct: five whole bodied Drosophila, or three Musca heads homogenized; from tissue; host or cells: whole Drosophila (Oregon-R), supernatant of homogenate
Description: as §1, §2

[4] = target: T4, AKRON AgAChE (G119S AChE mutation) (Anopheles gambiae, UniProt Q869C3, G280S); test: AChE inhibition, Ellman assay; type: biochemical
T4 construct: Homogenate enzymes were prepared from groups of ten non-blood fed adult female mosquitoes; from tissue; host or cells: whole adult female mosquitoes, AKRON strain, supernatant of homogenate
Description: as §1
as §2, with “reaction. Changes in absorbance were recorded by a DYNEX Triad spectrophotometer (DYNEX Technologies, Chantilly, VA, USA) at 405 nm. Enzyme concentrations used were within the linear range, therefore eliminating the need for protein quantification.” for “reaction.”

[5] = target: Musca domestica AChE (MdAChE) (Musca domestica, UniProt Q7YWJ9); test: AChE inhibition, Ellman assay; type: biochemical; conditions: mean, n = 3; read-out: IC50 (95% CI)
Description: as §1
as §2, with “reaction. Changes in absorbance were recorded by a DYNEX Triad spectrophotometer (DYNEX Technologies, Chantilly, VA, USA) at 405 nm. Enzyme concentrations used were within the linear range, therefore eliminating the need for protein quantification.” for “reaction.”

[6] = test system: neuromuscular junction of third instar Musca domestica larvae; test: Neuromuscular junction recordings of evoked EPSP in housefly larvae; conditions: toluene at 5 mM
Protocol: Neuromuscular recordings of the evoked excitatory postsynaptic potential (EPSP) were performed on third instar housefly larvae, essentially as described previously. In short, the maggot was immobilized with pins, and the nervous and musculature systems were exposed. The preparation was then bathed in saline containing: 140 mM NaCl, 0.75 mM CaCl2, 5 mM KCl, 4 mM MgCl2, 5 mM NaHCO3, and 5 mM HEPES (pH = 7.25). The nerves were severed from the base of the CNS, which was removed, and a lateral nerve trunk innervating the longitudinal muscles was drawn into a suction electrode filled with saline. Stimuli were applied at 1 volt and of 0.2 sec duration to elicit a contraction from the longitudinal muscles. The stimulated muscle was then impaled with a recording glass capillary microelectrode filled with 1 M KCl to record effects on the evoked EPSP and membrane potential. Signals from all recordings were amplified and digitized with the use of the MacLab. Chemicals were applied to the preparation directly by hand pipetting 150 µL of solution into the bath volume of 150 µL.

[7] = test system: housefly larval central nervous system; test: Neurophysiological recordings of CNS nerve discharge in housefly larvae; parameters: species or system Musca domestica; conditions: for EC50: Musca domestica
Protocol: Neurophysiological recordings were performed on the central and peripheral nervous systems of larval Musca domestica. Glass pipette electrodes were pulled from borosilicate glass capillaries on a P-1000 Flaming/Brown micropipette puller (Sutter Instrument, Novato CA, USA). For CNS recordings, it was first excised from the larvae and placed in a separate dish with physiological saline (200 µL) containing: 157 mM NaCl, 3 mM KCl, 2 mM CaCl2, and 4 mM HEPES, pH = 7.25. The CNS was manually transected posterior to the cerebral lobes to disrupt the blood-brain barrier and enhance chemical penetration. Any convenient peripheral nerve trunks were pulled into a recording suction electrode. Amplification and digitization of descending electrical activity originating from the CNS were converted on-line into a rate plot, expressed in Hz (MacLab analog to digital converter hardware and LabChart 7 software, ADInstruments, Colorado Springs, CO, USA). […] After a baseline was established, the CNS preparation was directly exposed to test compound by adding 200 µL of solution to the bath containing 200 µL of saline. The final concentration of solvent in the bath was 0.1% DMSO. Each concentration was recorded for 3–5 min prior to the addition of the next drug concentration. […] Each drug concentration was replicated 3-5 times.

[8] = test system: octopamine receptors of Sf21 cells; test: Calcium fluorescence assay in Sf21 cells; type: cell-based
Protocol: The Sf21 insect cell line was obtained from a commercial supplier (Invitrogen, Carlsbad, CA, USA) and maintained in log phase culture in Trichoplusia ni Medium-Formulation Hink (TNM-FH) from Sigma-Aldrich (St. Louis, MO, USA), supplemented with 10% fetal bovine serum and 100 U/ml penicillin and streptomycin (Sigma-Aldrich). Cells were cultured in a non-humidified environment and maintained at 27°C. Sf21 cells were passaged every 3–5 days according to manufacturer's instructions, and maintained for about 30 passes before being replaced by fresh cells.
Sf21 cells were plated into 96-well black-wall, clear bottom plates 24 h before calcium fluorescence assay. […] The octopamine receptor antagonist phentolamine (100 µM) was co-incubated with cells for 1 h before drug challenge. Phentolamine, octopamine, and DEET were dissolved in water, while propoxur was dissolved in 100% DMSO to make a stock solution, and in the assay, DMSO was kept to 0.1%. The experiment was repeated in triplicate with different plates of cells to obtain means and SEMs for each experimental condition.

firefly light organ = test: In vivo assay for effects on firefly light organ; parameters: species or system Photinus pyralis
Protocol: Adult firefly beetles (Photinus sp.) were collected locally (Nashville, TN) and housed in well-ventilated chambers with tree leaves. The animals had free access to 10% sucrose solution. Chemicals were dissolved in absolute ethanol and 1 µL was topically applied directly to the ventral light organ with the use of a manual pipettor. Prior to DEET application, the beetles were immobilized with molten parafilm and were mounted on corrugated cardboard for the duration of the study. Due to the time required for bioactivation of CDM, insects were treated with 1 µL of CDM and were released back into the holding chamber for three hours. After three hours, they were mounted in the previously described manner and monitored for activation of the lantern. Photographs were captured with a handheld camera (Canon PowerShot SX110 IS). Pictures were captured within five minutes, four hours, and 10 minutes post application for DEET, CDM, and propoxur, respectively. DEET- and propoxur-treated insects were monitored for at least 1 hour post exposure to ensure the response was not slow acting. The original photographs were cropped and background shadows were enhanced to increase detail of the insect using Adobe Photoshop PS5 (Adobe Systems, San Jose, CA, USA). The color or brightness of the light organ was not manipulated in any way during post-processing of the image.

[9] = target: T5, Recombinant human AChE (hAChE) (Homo sapiens, UniProt P22303); test: AChE inhibition, Ellman assay; type: biochemical; conditions: mean, n = 3; read-out: IC50 (95% CI)
T5 construct: purchased Sigma C1682
Description: as §1
as §2, with “reaction. Changes in absorbance were recorded by a DYNEX Triad spectrophotometer (DYNEX Technologies, Chantilly, VA, USA) at 405 nm. Enzyme concentrations used were within the linear range, therefore eliminating the need for protein quantification.” for “reaction.”

acetylcholinesterase = test: AChE inhibition, Ellman assay, summary statements across enzymes; type: biochemical; conditions: concentrations up to 10 mM, all enzyme preparations
Description: as §1, with “The supernatant was used as the enzyme source, and all enzyme preparations contained 0.3% (v/v) triton X-100 and 1 mg/ml BSA. Prior to use, the recombinant human enzyme was diluted 500-fold into sodium phosphate buffer containing triton X-100 and 1 mg/ml BSA.” left out
Inhibition of AChE was determined using the Ellman assay and was based on the method outlined in Carlier et al.. […] Changes in absorbance were recorded by a DYNEX Triad spectrophotometer (DYNEX Technologies, Chantilly, VA, USA) at 405 nm. Enzyme concentrations used were within the linear range, therefore eliminating the need for protein quantification.

[10] = test system: housefly larval central nervous system; test: Neurophysiological recordings of CNS nerve discharge in housefly larvae; conditions: Musca domestica; transected CNS; value (95% CI); read-out: EC50, excitation of nerve firing
rat Nav 1.4 channel = test system: rat Nav 1.4 channel; parameters: method as in ref 12 = [12]; 12 Scior T , Martinez-Morales E , Cruz S , Salinas-Stefanon E ( 2009 ) In silico modeling of toluene binding site in the pore of voltage-gate sodium channel . J Receptor Ligand Channel Res 2 : 1 – 9 .; conditions: in vitro ref 12; cited from earlier work
[11] = mean, n = 3, read-out: IC50 (95% CI)

Compound: CCN(CC)CC(=O)Nc1c(C)cccc1C [Lidocaine, lidocaine]
- IC50 [1, 11]: > 10 mM
- IC50 [2, 11]: > 10 mM
- IC50 [3]: 9.6 mM
- IC50 [4]: > 10 mM
- IC50 [5]: 4.9 mM
- effect on evoked EPSP in words [6]: antagonist

Compound: NCC(O)c1ccc(O)cc1 (centres unmarked) [Octopamine, octopamine]
- EC50 ([7]; Fig. 3B, read-out: excitatory EC50): 0.11 mM
- increase in calcium fluorescence ([8]; 100 µM, over control cells): ca. 50%

Compound: Cc1cc(Cl)ccc1N=CN(C)C [CDM, chlordimeform]
- lantern illumination (firefly light organ; 1 µg topically on light organ): incomplete activation of the light organ
- duration of glow of the entire lantern (firefly light organ; 5 µg): approximately four
- lantern illumination (firefly light organ; 5 µg topically on light organ): bright, constant glow of the entire lantern

Compound: Cc1ccc(N(CC2=NCCN2)c2cccc(O)c2)cc1 [phentolamine]
- block of DEET-mediated neuroexcitation ([7]; 100 µM phentolamine, DEET up to 500 µM): completely blocked
- block of octopamine-mediated neuroexcitation ([7]; 100 µM phentolamine, octopamine up to 3 mM): completely blocked
- decline of maximal firing compared to propoxur alone ([7]; 100 µM phentolamine, propoxur 1 µM, not statistically significant): 21%
- effect on neuroexcitation by propoxur ([7]; 100 µM phentolamine, propoxur below 1 µM): no effect
- effect on 4-AP mediated neuroexcitation ([7]; phentolamine): no effect
- effect on DEET- and octopamine-mediated activation of calcium fluorescence ([8]; 100 µM phentolamine pre-exposure 1 h): abolished

Compound: Nc1ccncc1 [4-AP, 4-aminopyridine]
- increase of maximal firing frequency above control levels [7]: 6 fold
- EC50 ([7]; Fig. 3D, firing declined at concentrations >1 mM, read-out: EC50, neuroexcitation): 0.013 mM

Compound: Cc1ccccc1 [Toluene, toluene]
- IC50 [1]: > 10 mM
- IC50 [2]: > 10 mM
- IC50 [3]: > 10 mM
- IC50 [4]: > 10 mM
- IC50 [5]: > 10 mM
- IC50 [9]: > 10 mM
- AChE inhibition in words (acetylcholinesterase): inactive
- effect on evoked EPSP in words [6]: excitatory
- EC50 [10]: 1 mM
- concentration blocking channels (rat Nav 1.4 channel): 3 mM
